Assay results: patent publication US9409952B2, “Peptide-compound cyclization method” (Chugai Seiyaku Kabushiki Kaisha, priority 2011, dated 2016)
Read-outs that look alike come from different tables or passages of the source. Starred links: 1 amine or outer side, 2 acyl side, 3 side chain; linkers in the order of their positions; H or OH if unused. Positions of bridges follow the written chain, without caps; N, C: chain ends. Non-standard residues stand in square brackets, D forms with d. Residues, ends and D or L forms follow the SMILES beside them. ξ: configuration not given here. *: point of attachment. NMeF = CN[C@@H](Cc1ccccc1)C(=O)O; NMeGABA = CN(CCCC(=O)[*:2])[*:1]; NMeI = CC[C@H](C)[C@H](NC)C(=O)O; NMeβAla = CN(CCC(=O)[*:2])[*:1]; ξThr(3R) = C[C@@H](O)C(N)C(=O)O; NMeL = CN[C@@H](CC(C)C)C(=O)O; NMeV = CN[C@H](C(=O)O)C(C)C; NMeA = CN[C@@H](C)C(=O)O; Piperidide = C1CCN(*)CC1; dNMeA = CN[C@H](C)C(=O)O; β3hA = C[C@H](N)CC(=O)O; ξL = CC(C)CC(N)C(=O)O; Sar = CNCC(=O)O; tBu = CC(C)(C)*

Assays:
[1] = PAMPA (parallel artificial membrane permeability assay); assay type: in vitro ADME; details: for Papp at 18 hours, 50 µM: PAMPA
Summary of the method: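 Artificial membrane was 10% (w/v) egg lecithin plus 0.5% (w/v) cholesterol in dodecane on a PVDF filter. A 10 mM DMSO stock was added at 0.5% (v/v) to donor buffer (50 mM MOPSO, pH 6.5, 5.0% glycocholic acid). After 18 h at 37 °C, LC/MS or LC/UV gave donor and acceptor levels for Pe.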

[2] = Metabolic stability in human hepatic microsome; assay type: in vitro ADME; details: microsomes
[3] = membrane permeation rate (Pe), 50 mM MOPSO buffer pH 6.5 with 5.0% glycocholic acid, 37° C., 18 hours, read-out: iPAMPA Pe
[4] = pH 7.4, human hepatic microsome, NADPH(+), read-out: CL NADPH(+)

Row | Compound | Papp at 18 hours, 50 µM [1, 3] | microsomal CLint at 1 uM [2, 4] | Papp at 18 hours, 50 µM ([1]; pH 6.5) | microsomal CLint at 1 uM ([2]; human, pH 7.4, CL NADPH(+)) | iPAMPA Pe ([1]; membrane permeation rate (Pe), 50 mM MOPSO buffer pH 6.5 with 5.0% glycocholic acid, 37° C., 18 hours)
1 | CC[C@H](C)[C@@H]1NC(=O)[C@H](Cc2ccccc2)N(C)C(=O)[C@H](CC(C)C)N(C)C(=O)[C@H](Cc2ccccc2)NC(=O)[C@H](C)N(C)C(=O)[C@H]([C@@H](C)O)NC(=O)[C@H](C(C)C)NC(=O)[C@@H](C(C)C)NC(=O)C[C@@H](C(=O)N(C)[C@@H](Cc2ccccc2)C(=O)N[C@H](C(=O)N(C)[C@@H](C)C(=O)N(C)[C@@H](CC(C)C)C(=O)N[C@H](C(=O)N2CCCCC2)[C@@H](C)CC)C(C)C)NC1=O [DP-935] ([dV]VT[NMeA]F[NMeL][NMeF]ID[NMeF]V[NMeA][NMeL]I-Piperidide; lactam N-9) | 0.1 ×10⁻⁶ cm/s | 29 µL/min/mg |  |  | 
2 | CC(C)C[C@H]1C(=O)N[C@@H](Cc2ccccc2)C(=O)N[C@@H]([C@@H](C)O)C(=O)N(C)[C@@H](C)C(=O)N(C)[C@@H](Cc2ccccc2)C(=O)N(C)[C@@H](C(C)C)C(=O)NCC(=O)N[C@H](C(=O)N(C)[C@@H](Cc2ccccc2)C(=O)N[C@@H](C)C(=O)N2CCCCC2)CC(=O)N(C)[C@H](C)C(=O)N[C@@H](C)C(=O)N1C [DP-355] ([dNMeA]A[NMeL]FT[NMeA][NMeF][NMeV]GD[NMeF]A-Piperidide; lactam N-10) | 17 ×10⁻⁶ cm/s | 66 µL/min/mg |  |  | 
3 | CC(C)C[C@H]1C(=O)N[C@@H]([C@@H](C)O)C(=O)N[C@H](C(=O)N(C)[C@@H](Cc2ccccc2)C(=O)N(C)[C@@H](Cc2ccccc2)C(=O)N[C@@H](C)C(=O)N2CCCCC2)CC(=O)N(C)CCCC(=O)N(C)[C@@H](C)C(=O)N(C)[C@@H](Cc2ccccc2)C(=O)N[C@@H](C(C)C)C(=O)N(C)[C@@H](CC(C)C)C(=O)N(C)CC(=O)N1C [DP-404] ([NMeGABA][NMeA][NMeF]V[NMeL][Sar][NMeL]TD[NMeF][NMeF]A-Piperidide; lactam N-9) | 20 ×10⁻⁶ cm/s | 107 µL/min/mg |  |  | 
4 | CC(C)C[C@H]1C(=O)N(C)[C@@H](Cc2ccccc2)C(=O)N(C)[C@@H](C(C)C)C(=O)N[C@@H](Cc2ccccc2)C(=O)N[C@H](C(=O)N(C)[C@@H](Cc2ccccc2)C(=O)N[C@@H](C)C(=O)N2CCCCC2)CC(=O)N(C)[C@@H](C)C(=O)N[C@@H](C(C)C)C(=O)N(C)[C@@H](CC(C)C)C(=O)N[C@@H]([C@@H](C)O)C(=O)NCC(=O)N1C [DP-191] ([NMeA]V[NMeL]TG[NMeL][NMeF][NMeV]FD[NMeF]A-Piperidide; lactam N-10) | 34 ×10⁻⁶ cm/s | 46 µL/min/mg |  |  | 
5 | CC(C)C[C@@H]1NC(=O)[C@@H](C)N(C)C(=O)C[C@@H](C(=O)N2CCCCC2)NC(=O)[C@H]([C@@H](C)O)NC(=O)[C@H](CC(C)C)N(C)C(=O)[C@H](CC(C)C)N(C)C(=O)[C@H](Cc2ccccc2)NC(=O)[C@H](CC(C)C)N(C)C(=O)[C@H](Cc2ccccc2)N(C)C1=O [DP-343] ([dNMeA]L[NMeF][NMeL]F[NMeL][NMeL]TD-Piperidide; lactam N-9) | 36 ×10⁻⁶ cm/s | 427 µL/min/mg |  |  | 
6 | CC(C)C[C@@H]1NC(=O)[C@H](Cc2ccccc2)N(C)C(=O)[C@H]([C@@H](C)O)NC(=O)[C@H](Cc2ccccc2)N(C)C(=O)[C@H](C)N(C)C(=O)[C@H](C)NC(=O)C[C@@H](C(=O)N2CCCCC2)NC(=O)[C@@H]2CCCN2C1=O [DP-530] (A[NMeA][NMeF]T[NMeF]LPD-Piperidide; lactam N-8) |  |  | 11 ×10⁻⁶ cm/s | 37 µL/min/mg | 
7 | CC[C@H](C)[C@@H]1NC(=O)[C@@H]2CCCN2C(=O)[C@H](Cc2ccccc2)NC(=O)[C@H](Cc2ccccc2)NC(=O)[C@H](CC(C)C)NC(=O)[C@H](C(C)C)N(C)C(=O)[C@H](CC(C)C)NC(=O)[C@H](C)NC(=O)[C@H](C)NC(=O)C[C@@H](C(=O)N2CCCCC2)NC(=O)CNC(=O)C([C@@H](C)O)NC1=O (stereo partly drawn) [DP-3] (AAL[NMeV]LFFPI[ξThr(3R)]GD-Piperidide; lactam N-12) |  |  | 0.56 ×10⁻⁶ cm/s | 45 µL/min/mg | 
8 | CC[C@H](C)[C@@H]1NC(=O)[C@@H](C)N(C)C(=O)C[C@@H](C(=O)N(C)[C@@H](Cc2ccccc2)C(=O)N[C@@H](C)C(=O)N2CCCCC2)NC(=O)[C@H](Cc2ccccc2)N(C)C(=O)[C@H](C)NC(=O)[C@H](CC(C)C)N(C)C(=O)[C@H](C)N(C)C(=O)[C@H]([C@@H](C)O)NC(=O)[C@H](C(C)C)N(C)C(=O)[C@H](C)N(C)C1=O [DP-124] ([dNMeA]I[NMeA][NMeV]T[NMeA][NMeL]A[NMeF]D[NMeF]A-Piperidide; lactam N-10) |  |  | 20 ×10⁻⁶ cm/s | 27 µL/min/mg | 
9 | CC[C@H](C)[C@@H]1NC(=O)[C@H](CC(C)C)N(C)C(=O)[C@H](C)NC(=O)CN(C)C(=O)[C@H](CC(C)C)NC(=O)[C@H]([C@@H](C)O)NC(=O)[C@H](CC(C)C)N(C)C(=O)CCN(C)C(=O)C[C@H](C)NC(=O)[C@H](CC(C)C)N(C)C(=O)[C@H](CC(C)C)N(C)C1=O [DP-806] (cyclo(A[NMeL]I[NMeL][NMeL][β3hA][NMeβAla][NMeL]TL[Sar])) | 27 ×10⁻⁶ cm/s | 88 µL/min/mg |  |  | 
10 | CC[C@H](C)[C@H](NC(=O)[C@H](C)N(C)C(=O)[C@H](Cc1ccccc1)N(C)C(=O)[C@H](CC(C)C)N(C)C(=O)[C@@H]1CC(=O)N[C@@H](C)C(=O)N(C)[C@@H](Cc2ccccc2)C(=O)N(C)[C@@H](CC(C)C)C(=O)N[C@@H]([C@@H](C)O)C(=O)N(C)CC(=O)N(C)[C@@H](Cc2ccccc2)C(=O)N1)C(=O)N1CCCCC1 [DP-918] (A[NMeF][NMeL]T[Sar][NMeF]D[NMeL][NMeF][NMeA]I-Piperidide; lactam N-7) | 5.3 ×10⁻⁶ cm/s | 55 µL/min/mg |  |  | 
11 | CC[C@H](C)[C@@H]1NC(=O)[C@H]([C@@H](C)O)NC(=O)[C@H](C)N(C)C(=O)[C@H](CC(C)C)N(C)C(=O)[C@H](Cc2ccccc2)N(C)C(=O)[C@H](Cc2ccccc2)N(C)C(=O)[C@H](C)N(C)C(=O)[C@H](CC(C)C)N(C)C(=O)[C@@H](C(C)C)NC(=O)C[C@@H](C(=O)N2CCCCC2)NC1=O [DP-172] ([dV][NMeL][NMeA][NMeF][NMeF][NMeL][NMeA]TID-Piperidide; lactam N-10) |  | 25 µL/min/mg |  |  | 7.0E−05
12 | CC[C@H](C)[C@H]1C(=O)N[C@H](C(=O)N2CCCCC2)CC(=O)N(C)CCCC(=O)N(C)[C@@H](CC(C)C)C(=O)N[C@@H](C)C(=O)N(C)[C@@H](CC(C)C)C(=O)N(C)[C@@H](Cc2ccccc2)C(=O)N(C)[C@@H](CC(C)C)C(=O)N[C@@H]([C@@H](C)O)C(=O)N(C)[C@@H](C)C(=O)N(C)[C@@H](Cc2ccccc2)C(=O)N1C [DP-251] ([NMeGABA][NMeL]A[NMeL][NMeF][NMeL]T[NMeA][NMeF][NMeI]D-Piperidide; lactam N-11) | 24 ×10⁻⁶ cm/s | 45 µL/min/mg |  |  | 
13 | CC(C)C[C@H]1C(=O)N[C@@H](COC(C)(C)C)C(=O)N[C@H](C(=O)N2CCCCC2)CC(=O)N[C@H](C)C(=O)N(C)[C@@H](Cc2ccccc2)C(=O)N(C)[C@@H](CC(C)C)C(=O)N[C@@H]([C@@H](C)O)C(=O)N(C)[C@@H](C)C(=O)N1C [DP-529] ([dA][NMeF][NMeL]T[NMeA][NMeL]S(tBu)D-Piperidide; lactam N-8) | 23 ×10⁻⁶ cm/s | 100 µL/min/mg |  |  | 
14 | CC(C)C[C@@H]1NC(=O)[C@H](C)NC(=O)[C@H]([C@@H](C)O)NC(=O)[C@H](CC(C)C)NC(=O)[C@H](CC(C)C)NC(=O)[C@H](C(C)C)NC(=O)CCN(C)C(=O)C[C@@H](C(=O)N2CCCCC2)NC(=O)[C@H](CC(C)C)NC(=O)[C@H](Cc2ccccc2)NC(=O)[C@H](CC(C)C)NC1=O [DP-514] ([NMeβAla]VLLTALLFLD-Piperidide; lactam N-11) | 6.8 ×10⁻⁶ cm/s | 103 µL/min/mg |  |  | 
15 | CC[C@H](C)[C@@H]1NC(=O)[C@H](Cc2ccccc2)N(C)C(=O)[C@H](C)N(C)C(=O)[C@H]([C@@H](C)O)NC(=O)[C@@H](C)N(C)C(=O)C[C@@H](C(=O)N2CCCCC2)NC(=O)[C@H](CC(C)C)N(C)C(=O)[C@H](C)N(C)C(=O)[C@H](Cc2ccccc2)NC(=O)[C@H](C(C)C)N(C)C(=O)[C@@H]2CCCN2C1=O [DP-164] ([dNMeA]T[NMeA][NMeF]IP[NMeV]F[NMeA][NMeL]D-Piperidide; lactam N-11) |  |  | 30 ×10⁻⁶ cm/s | 253 µL/min/mg | 
16 | CC(C)C[C@H]1C(=O)N[C@H](C(=O)N(C)[C@@H](Cc2ccccc2)C(=O)N(C)[C@@H](Cc2ccccc2)C(=O)N[C@@H](C)C(=O)N2CCCCC2)CC(=O)N[C@@H](C)C(=O)N(C)[C@@H](Cc2ccccc2)C(=O)N(C)[C@@H](C)C(=O)N(C)[C@@H](CC(C)C)C(=O)N[C@@H]([C@@H](C)O)C(=O)N(C)[C@@H](C)C(=O)N(C)[C@@H](CC(C)C)C(=O)N[C@@H](C(C)C)C(=O)N1C [DP-203] (A[NMeF][NMeA][NMeL]T[NMeA][NMeL]V[NMeL]D[NMeF][NMeF]A-Piperidide; lactam N-10) | 11 ×10⁻⁶ cm/s | 18 µL/min/mg |  |  | 
17 | CC[C@H](C)[C@H]1C(=O)N(C)[C@@H](Cc2ccccc2)C(=O)N[C@H](C(=O)N2CCCCC2)CC(=O)N(C)CCC(=O)NC(CC(C)C)C(=O)N(C)[C@@H](Cc2ccccc2)C(=O)N(C)[C@@H](CC(C)C)C(=O)N(C)[C@@H](C(C)C)C(=O)N[C@@H](C)C(=O)N(C)[C@@H](C)C(=O)N[C@@H]([C@@H](C)O)C(=O)N(C)CC(=O)N1C (stereo partly drawn) [DP-61] ([NMeβAla][ξL][NMeF][NMeL][NMeV]A[NMeA]T[Sar][NMeI][NMeF]D-Piperidide; lactam N-12) |  |  | 19 ×10⁻⁶ cm/s | 47 µL/min/mg | 
18 | CC[C@H](C)[C@H]1C(=O)N(C)[C@@H](C)C(=O)N[C@H](C(=O)N2CCCCC2)CC(=O)N(C)CC(=O)N[C@@H](COC(C)(C)C)C(=O)N(C)CC(=O)N(C)[C@@H](CC(C)C)C(=O)N[C@@H]([C@@H](C)O)C(=O)N(C)[C@@H](Cc2ccccc2)C(=O)N(C)[C@@H](CC(C)C)C(=O)N1C [DP-76] ([Sar]S(tBu)[Sar][NMeL]T[NMeF][NMeL][NMeI][NMeA]D-Piperidide; lactam N-10) |  |  | 16 ×10⁻⁶ cm/s | 27 µL/min/mg | 
